What was measured:
[1] = test system: purple deadnettle (LAMPU); test: Postemergence greenhouse trial, % visual injury on purple deadnettle; type: in vivo, Lamium purpureum; conditions: alone
Method in brief: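 Herbicide rates g ae/ha, safener (cloquintocet-mexyl) rates g ai/ha; spray carrier 1.5% v/v crop oil concentrate, 187 L/ha, 2nd–3rd leaf stage. Rating: visual % injury at 20-22 d.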

lambsquarters (CHEAL) = test: Postemergence greenhouse trial, % visual injury on lambsquarters; type: in vivo, Chenopodium album; conditions: Chenopodium album, post-emergence, alone, read-out: % visual injury, Ob
Method in brief: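 Plants at second or third true leaf stage, greenhouse-grown (14 h photoperiod, ~23/22° C.), sprayed postemergence with compounds alone or with safener cloquintocet-mexyl in 1.5% v/v Agri-dex crop oil at 187 L/ha. Visual injury scored 0–100% versus solvent-blank controls after 20-22 d; expected mixture effects by Colby's equation.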

cornflower (CENCY) [2] = test: Postemergence greenhouse trial, % visual injury on cornflower; type: in vivo, Centaurea cyanus or Cyanus segetum; conditions: alone
Procedure: (§1) Seeds of the desired test plant species were planted in Sun Gro MetroMix® 306 planting mixture, which typically has a pH of 6.0 to 6.8 and an organic matter content of about 30 percent, in plastic pots with a surface area of 103.2 square centimeters (cm^2). When required to ensure good germination and healthy plants, a fungicide treatment and/or other chemical or physical treatment was applied. The plants were grown for 7-36 days (d) in a greenhouse with an approximate 14-hour (h) photoperiod which was maintained at about 23° C. during the day and 22° C. during the night. Nutrients and water were added on a regular basis and supplemental lighting was provided with overhead metal halide 1000-Watt lamps as necessary. The plants were employed for testing when they reached the second or third true leaf stage.
(§2) Weighed amounts of technical material were dissolved in a volume of 97:3 volume per volume (v/v) acetone/dimethyl sulfoxide (DMSO) to stock solutions. […] The concentrated stock solutions were diluted with an aqueous mixture of 1.5% v/v of Agri-dex crop oil concentrate to provide the appropriate application rates. Compound requirements are based upon a 12 milliliter (mL) application volume at a rate of 187 liters per hectare (L/ha). Stocks solutions of the safeners were prepared following the same procedure. Spray solutions of the safeners and experimental compound mixtures were prepared by adding the stock solutions to the appropriate amount of dilution solution to form a 12 mL spray solution in two-way combinations. Formulated compounds were applied to the plant material with an overhead Mandel track sprayer equipped with 8002E nozzles calibrated to deliver 187 L/ha over an application area of 0.503 square meters (m^2) at a spray height of 18 inches (43 centimeters (cm)) above average plant canopy. Control plants were sprayed in the same manner with the solvent blank. All herbicide application (component a) rates are in g ae/ha and all safener (component b) rates are in g ai/ha.
(§3) The treated plants and control plants were placed in a greenhouse as described above and watered by sub-irrigation to prevent wash-off of the test compounds. After 20-22 d, the condition of the test plants as compared with that of the control plants was determined visually and scored on a scale of 0 to 100 percent where 0 corresponds to no injury and 100 corresponds to complete kill. The condition of the test plants was compared with that of the control plants as determined visually and scored on a scale of 0 to 100 percent, where 0 corresponds to no injury and 100 corresponds to complete kill. Colby's equation was used to determine the herbicidal effects expected from the mixtures.
(§4) The safener cloquintocet-mexyl was combined with compound 1, compound 2, compound 3, compound 7, compound 8, compound 9, compound 10, compound 11, compound 12, compound 13, compound 14, compound 15, compound 16, compound 17, compound 18, compound 19, and compound 20, and applied to spring wheat (TRZAS), winter wheat (TRZAW), and spring barley (HORVS) and the phytotoxicity of the herbicidal compositions was measured. […]

spring barley (HORVS) = test: Postemergence greenhouse trial, % visual injury on spring barley; type: in vivo, Hordeum vulgare; conditions: alone
Method in brief: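 Greenhouse crops at second to third true leaf stage sprayed postemergence at 187 L/ha with herbicide (g ae/ha) plus safener (g ai/ha) in acetone/DMSO diluted into 1.5% v/v Agri-dex. Injury scored visually versus solvent-blank controls after 20-22 d, 0 (none) to 100% (complete kill); expected mixture effects by Colby's equation.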

Russian thistle (SASKR) = test: Postemergence greenhouse trial, % visual injury on Russian thistle; type: in vivo, Salsola kali; conditions: alone
shepherd's purse (CAPBP) = test: Postemergence greenhouse trial, % visual injury on shepherd's purse; type: in vivo, Capsella bursa-pastoris; conditions: alone
Procedure: as §1, §2, §3, §4

spring wheat (TRZAS) = test: Postemergence greenhouse trial, % visual injury on spring wheat; type: in vivo, Triticum aestivum; conditions: alone
Method in brief: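 Postemergence greenhouse spray (187 L/ha, 1.5% v/v Agri-dex in water, acetone/DMSO stocks) on plants at second–third true leaf stage, ~23/22 °C, 14 h photoperiod; herbicides in g ae/ha, safener cloquintocet-mexyl in g ai/ha. Visual injury 0–100% versus solvent-blank controls after 20–22 d; Colby's equation gave expected mixture effects.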

cornflower (CENCY) [3] = test: Postemergence greenhouse trial, % visual injury on cornflower; type: in vivo, Centaurea cyanus or Cyanus segetum; conditions: alone; remark: listed apart in the source

Nc1c(F)c(-c2ccc3cc[nH]c3c2F)nc(C(=O)O)c1Cl [compound 1]
% visual injury, Ob ([1]; 4.375 g/ha): 76%
% visual injury, Ob ([1]; 8.75 g/ha): 86%
% visual injury, Ob ([1]; 17.5 g/ha): 90%
% visual injury, Ob ([1]; 35 g/ha): 98%
% visual injury, Ob ([1]; 70 g/ha): 100%
pest or weed control at 4.375 g/ha (lambsquarters (CHEAL); 4.375 g/ha): 86%
pest or weed control at 8.75 g/ha (lambsquarters (CHEAL); 8.75 g/ha): 95%
pest or weed control at 17.5 g/ha (lambsquarters (CHEAL); 17.5 g/ha): 99%
pest or weed control at 35 g/ha (lambsquarters (CHEAL); 35 g/ha): 100%
pest or weed control at 70 g/ha (lambsquarters (CHEAL); 70 g/ha): 100%
% visual injury, Ob (cornflower (CENCY) [2]; 4.375 g/ha): 100%
% visual injury, Ob (cornflower (CENCY) [2]; 8.75 g/ha): 100%
% visual injury, Ob (cornflower (CENCY) [2]; 35 g/ha): 100%
% visual injury, Ob (spring barley (HORVS); 4.375 g/ha): 13%
% visual injury, Ob (spring barley (HORVS); 8.75 g/ha): 13%
% visual injury, Ob (spring barley (HORVS); 17.5 g/ha): 24%
% visual injury, Ob (spring barley (HORVS); 35 g/ha): 32%
% visual injury, Ob (spring barley (HORVS); 70 g/ha): 41%
% visual injury, Ob (Russian thistle (SASKR); 4.375 g/ha): 66%
% visual injury, Ob (Russian thistle (SASKR); 8.75 g/ha): 70%
% visual injury, Ob (Russian thistle (SASKR); 17.5 g/ha): 82%
% visual injury, Ob (Russian thistle (SASKR); 35 g/ha): 90%
% visual injury, Ob (Russian thistle (SASKR); 70 g/ha): 91%
% visual injury, Ob (shepherd's purse (CAPBP); 4.375 g/ha): 70%
% visual injury, Ob (shepherd's purse (CAPBP); 8.75 g/ha): 100%
% visual injury, Ob (shepherd's purse (CAPBP); 17.5 g/ha): 100%
% visual injury, Ob (shepherd's purse (CAPBP); 35 g/ha): 100%
% visual injury, Ob (shepherd's purse (CAPBP); 70 g/ha): 100%
% visual injury, Ob (spring wheat (TRZAS); 4.375 g/ha): 13%
% visual injury, Ob (spring wheat (TRZAS); 8.75 g/ha): 16%
% visual injury, Ob (spring wheat (TRZAS); 17.5 g/ha): 31%
% visual injury, Ob (spring wheat (TRZAS); 35 g/ha): 39%
% visual injury, Ob (spring wheat (TRZAS); 70 g/ha): 51%
% visual injury, Ob (cornflower (CENCY) [3]; 17.5 g/ha): 100%
% visual injury, Ob (cornflower (CENCY) [3]; 70 g/ha): 100%

Source: patent US9763445B2, “Safened herbicidal compositions comprising a pyridine carboxylic acid herbicide” (Dow AgroSciences, LLC, priority 2014, dated 2017)
